Molecules are shown by their SMILES.

The values that follow come from patent US11478445B2, “Method for treating acute myeloid leukemia” (Bionomics Limited, priority 2017, dated 2022).

The subject of one assay is HL-60 AML cell line. The assay can be described thus: MTS proliferation assay, HL-60. In kind it is cell-based. As for the experimental part: (§1) The cell lines (MV4; 11 and HL-60) were plated in 96-well plates at 1×10^4 cells/well in 50 uL of complete growth media. Cells were plated in triplicate wells for each dose being tested. EX 1 (in DMSO), Oxi4503 (EndoTherm, Batch #EN09013, in water), CA4P (Selleckchem, Cat #S7204, in water) and Plinabulin (Selleckchem, Cat #S1176, in DMSO) was reconstituted immediately prior to use at 10 mM in appropriate diluent as indicated. The drug was prepared 2× concentrated in media and 50 uL added to respective wells (0.1% DMSO or water, final concentration). After 72 hours, 20 μL of CellTiter 96 AQueous One Solution reagent (Promega cat #G3581) was added to each well and the plate incubated for 2 h at 37° C. before absorbance was measured at 492 nm using a Thermo Multiskan Ascent96/384 Plate Reader.
(§2) To compare the efficacy of EX 1 with other tubulin polymerisation inhibitors, MTS proliferation assays were performed on MV4; 11 and HL-60 AML cell lines (Table 1). […] Cells were cultured with the compounds for 72 hours before viability was measured by the addition of CellTiter 96 AQueous One Solution reagent (Promega cat #G3581) and absorbance measured at 492 nm. IC50 was calculated using the absolute IC50 method in GraphPad Prism 6.

The subject of a further assay is MV4; 11 AML cell line. Description: MTS proliferation assay, MV4;11. In kind it is cell-based. As for the experimental part: as §1, §2

On to `COc1cc(C(=O)c2c(C)oc3c(O)c(OC)ccc23)cc(OC)c1OC` [EX 1, 2-Methyl-7-hydroxy-3-(3,4,5-trimethoxybenzoyl)-6-methoxybenzofuran], for which the “IC50 compared with Oxi4503, CA4P and Plinabulin” value with HL-60 AML cell line (HL-60, 72 h) is “lowest IC50”; in the assay with MV4; 11 AML cell line (MV4;11, 72 h), “lowest IC50”. Further, the “potency relative to any other VDAs (times more potent)” value in the assay with HL-60 AML cell line (HL-60, 72 h exposure) was “at least 10 times”; in the assay on MV4; 11 AML cell line (MV4-11, 72 h exposure), “at least 10 times”.
